For seven compounds, T/C results are on record in PubChem BioAssay AID330 (DTP/NCI, 2004).

This assay concerns P388 leukemia ip, CD2F1 mice, survival T/C. The assay can be described thus: NCI In Vivo Anticancer Drug Screen. Data for tumor model P388 Leukemia (intraperitoneal) in CD2F1 (CDF1) mice. The following applies: endpoint: median survival time, higher = longer survival. A digest of the protocol:
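Mice carrying the transplanted tumor received test compound or vehicle. Survival was recorded in each group, and the value is the treated-group measurement divided by that of the vehicle-treated control group.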

Setting [1] is: dose: 50.0 mg/kg/injection, schedule: Q01DX009 (ip), vehicle: Klucel (hydroxypropylcellulose) (HPC).
Where [2] appears, read: dose: 60.0 mg/kg/injection, schedule: Q01DX005 (ip), vehicle: saline.
The mark [3] stands for this setting: dose: 120.0 mg/kg/injection, schedule: Q01DX005 (ip), vehicle: saline.
Setting [4] is: dose: 240.0 mg/kg/injection, schedule: Q01DX005 (ip), vehicle: saline.

Several values for one entry are separate records, joined by “and”; a condition that tells them apart may be missing. Equal values may be shown once. Inconclusive results and toxic doses are left out.

For the compound `S=c1nc[nH]c2nc[nH]c12`, the T/C is 111 % of control (dose: 9.38 mg/kg/injection, schedule: Q01DX009 (ip), vehicle: alkali diluted with saline); 105 % of control (dose: 18.8 mg/kg/injection, schedule: Q01DX009 (ip), vehicle: alkali diluted with saline); 110 % of control (dose: 20.0 mg/kg/injection, schedule: Q01DX005 (ip), vehicle: alkali diluted with saline); 108 % of control and 92 % of control (dose: 20.0 mg/kg/injection, schedule: Q01DX005 (ip), vehicle: other); 95 % of control (dose: 20.0 mg/kg/injection, schedule: Q01DX009 (ip), vehicle: alkali diluted with saline); 118 % of control (dose: 20.0 mg/kg/injection, schedule: Q01DX009 (ip), vehicle: alkali diluted with water). In addition, the T/C is, setting by setting: (dose: 20.0 mg/kg/injection, schedule: Q04DX003 (ip), vehicle: other) 110 % of control; (dose: 20.0 mg/kg/injection, schedule: Q04DX003 (iv), vehicle: other) 116 % of control; (dose: 25.0 mg/kg/injection, schedule: Q01DX005 (ip), vehicle: alkali diluted with saline) 105 % of control; (dose: 25.0 mg/kg/injection, schedule: Q01DX005 (ip), vehicle: alkali diluted with water) 100 % of control; (dose: 25.0 mg/kg/injection, schedule: Q01DX009 (ip), vehicle: Klucel (hydroxypropylcellulose) (HPC)) 115 % of control; (dose: 28.13 mg/kg/injection, schedule: Q04DX003 (ip), vehicle: alkali diluted with saline) 105 % of control. The T/C runs as follows: (dose: 37.5 mg/kg/injection, schedule: Q01DX009 (ip), vehicle: alkali diluted with saline) 110 % of control; (dose: 37.5 mg/kg/injection, schedule: Q04DX003 (ip), vehicle: Klucel (hydroxypropylcellulose) (HPC)) 121 % of control; (dose: 40.0 mg/kg/injection, schedule: Q01DX001 (ip), vehicle: other) 111 % of control; (dose: 40.0 mg/kg/injection, schedule: Q01DX001 (iv), vehicle: other) 100 % of control; (dose: 40.0 mg/kg/injection, schedule: Q01DX005 (ip), vehicle: alkali diluted with saline) 119 % of control; (dose: 40.0 mg/kg/injection, schedule: Q01DX005 (ip), vehicle: other) 107 % of control and 119 % of control. For the same compound, the T/C was 101 % of control and 105 % of control and 97 % of control (dose: 40.0 mg/kg/injection, schedule: Q01DX009 (ip), vehicle: alkali diluted with saline); 86 % of control (dose: 40.0 mg/kg/injection, schedule: Q01DX009 (ip), vehicle: alkali diluted with water); 117 % of control (dose: 40.0 mg/kg/injection, schedule: Q04DX003 (ip), vehicle: other); 99 % of control (dose: 40.0 mg/kg/injection, schedule: Q04DX003 (iv), vehicle: other); 113 % of control (dose: 50.0 mg/kg/injection, schedule: Q01DX005 (ip), vehicle: alkali diluted with saline); 111 % of control (dose: 50.0 mg/kg/injection, schedule: Q01DX005 (ip), vehicle: alkali diluted with water). The T/C is, setting by setting: (dose: 50.0 mg/kg/injection, schedule: Q01DX005 (ip), vehicle: saline) 105 % of control; under setting [1], 123 % of control; (dose: 50.0 mg/kg/injection, schedule: Q01DX009 (ip), vehicle: alkali diluted with saline) 99 % of control and 104 % of control; (dose: 56.25 mg/kg/injection, schedule: Q04DX003 (ip), vehicle: alkali diluted with saline) 99 % of control; (dose: 60.0 mg/kg/injection, schedule: Q01DX009 (ip), vehicle: alkali diluted with saline) 102 % of control and 113 % of control; (dose: 75.0 mg/kg/injection, schedule: Q01DX009 (ip), vehicle: alkali diluted with saline) 117 % of control. Further, the T/C (dose: 75.0 mg/kg/injection, schedule: Q04DX003 (ip), vehicle: Klucel (hydroxypropylcellulose) (HPC)) is 117 % of control; the T/C (dose: 80.0 mg/kg/injection, schedule: Q01DX001 (iv), vehicle: other) was 103 % of control; the T/C (dose: 80.0 mg/kg/injection, schedule: Q01DX005 (ip), vehicle: alkali diluted with saline) was 120 % of control; the T/C (dose: 80.0 mg/kg/injection, schedule: Q01DX005 (ip), vehicle: other) was 95 % of control; the T/C (dose: 80.0 mg/kg/injection, schedule: Q01DX009 (ip), vehicle: alkali diluted with saline) is 95 % of control; the T/C (dose: 80.0 mg/kg/injection, schedule: Q04DX003 (iv), vehicle: other) was 104 % of control. Besides, the T/C reads like this: (dose: 100.0 mg/kg/injection, schedule: Q01DX005 (ip), vehicle: alkali diluted with saline) 105 % of control; (dose: 100.0 mg/kg/injection, schedule: Q01DX005 (ip), vehicle: alkali diluted with water) 105 % of control; (dose: 100.0 mg/kg/injection, schedule: Q01DX005 (ip), vehicle: saline) 102 % of control and 108 % of control; (dose: 112.5 mg/kg/injection, schedule: Q04DX003 (ip), vehicle: alkali diluted with saline) 107 % of control; (dose: 150.0 mg/kg/injection, schedule: Q01DX001 (ip), vehicle: alkali diluted with saline) 101 % of control and 107 % of control; (dose: 160.0 mg/kg/injection, schedule: Q01DX001 (iv), vehicle: other) 103 % of control. In addition, the T/C (dose: 160.0 mg/kg/injection, schedule: Q01DX005 (ip), vehicle: other) was 108 % of control and 112 % of control; the T/C (dose: 160.0 mg/kg/injection, schedule: Q01DX009 (ip), vehicle: alkali diluted with saline) was 106 % of control; the T/C (dose: 200.0 mg/kg/injection, schedule: Q01DX001 (ip), vehicle: alkali diluted with saline) was 108 % of control and 111 % of control; the T/C (dose: 200.0 mg/kg/injection, schedule: Q01DX005 (ip), vehicle: alkali diluted with water) was 86 % of control; the T/C (dose: 200.0 mg/kg/injection, schedule: Q01DX005 (ip), vehicle: saline) is 100 % of control and 115 % of control and 124 % of control; the T/C (dose: 225.0 mg/kg/injection, schedule: Q04DX003 (ip), vehicle: alkali diluted with saline) was 98 % of control. The T/C is, setting by setting: (dose: 250.0 mg/kg/injection, schedule: Q01DX001 (ip), vehicle: alkali diluted with saline) 107 % of control; (dose: 250.0 mg/kg/injection, schedule: Q01DX001 (ip), vehicle: saline) 102 % of control; (dose: 300.0 mg/kg/injection, schedule: Q01DX001 (ip), vehicle: alkali diluted with saline) 112 % of control; (dose: 320.0 mg/kg/injection, schedule: Q01DX001 (ip), vehicle: other) 100 % of control; (dose: 320.0 mg/kg/injection, schedule: Q01DX001 (iv), vehicle: other) 108 % of control; (dose: 320.0 mg/kg/injection, schedule: Q04DX003 (iv), vehicle: other) 100 % of control. In addition, the T/C is 89 % of control (dose: 400.0 mg/kg/injection, schedule: Q01DX005 (ip), vehicle: saline); 115 % of control (dose: 400.0 mg/kg/injection, schedule: Q01DX009 (ip), vehicle: Klucel (hydroxypropylcellulose) (HPC)); 104 % of control (dose: 500.0 mg/kg/injection, schedule: Q01DX001 (ip), vehicle: saline); 105 % of control (dose: 640.0 mg/kg/injection, schedule: Q01DX001 (iv), vehicle: other); 99 % of control (dose: 1000.0 mg/kg/injection, schedule: Q01DX001 (ip), vehicle: saline).
For `COC(=O)C1C(=O)CC2C(C(=O)OC)C(=O)CC12` (stereo not given), the T/C was 99 % of control (dose: 50.0 mg/kg/injection, schedule: Q01DX009 (ip), vehicle: saline with Tween-80); 95 % of control (dose: 100.0 mg/kg/injection, schedule: Q01DX009 (ip), vehicle: saline with Tween-80); 98 % of control (dose: 200.0 mg/kg/injection, schedule: Q01DX009 (ip), vehicle: saline with Tween-80).
Take `C[C@@](O)(/C=C/[C@H]1CC=CC(=O)O1)[C@@H](C[C@@H](O)\C=C/C=C\C=C\CO)OP(=O)(O)O`: the T/C (dose: 12.5 mg/kg/injection, schedule: Q01DX005 (ip), vehicle: other) was 150 % of control and 157 % of control; the T/C (dose: 25.0 mg/kg/injection, schedule: Q01DX005 (ip), vehicle: other) was 174 % of control.
For `COc1ccn(CC(C)=O)c(=O)n1`, the T/C under setting [2] is 100 % of control, the T/C under setting [3] was 100 % of control and the T/C under setting [4] was 100 % of control.
For the compound `CC(=O)OCCS(=O)Cc1ccccc1` (stereo not given), the T/C runs as follows: under setting [2], 92 % of control; under setting [3], 94 % of control; under setting [4], 100 % of control.
As to `CC1(c2ccccc2)OC1(C)c1ccccc1` (stereo not given), the T/C runs as follows: under setting [1], 103 % of control; (dose: 100.0 mg/kg/injection, schedule: Q01DX009 (ip), vehicle: Klucel (hydroxypropylcellulose) (HPC)) 103 % of control; (dose: 200.0 mg/kg/injection, schedule: Q01DX009 (ip), vehicle: Klucel (hydroxypropylcellulose) (HPC)) 103 % of control.
In the case of `COc1cccc(/C=C/C(=O)C(CN(C)C)CN(C)C)c1`, the T/C is, setting by setting: (dose: 6.25 mg/kg/injection, schedule: Q01DX005 (ip), vehicle: saline) 100 % of control; (dose: 12.5 mg/kg/injection, schedule: Q01DX005 (ip), vehicle: saline) 106 % of control.
